{"source": "ChEMBL document CHEMBL1765059", "about": "“Bunodosine 391: an analgesic acylamino acid from the venom of the sea anemone Bunodosoma cangicum” (J Nat Prod, 2011)", "assay_type_in_all_cases": "functional, organism-based", "key": {"Rattus norvegicus [1]": {"organism": "Rattus norvegicus", "experiment": "Antinociceptive activity against carrageenan-induced hyperalgesia in Wistar rat assessed as increase in pain threshold at 105 nm/paw, i.pl in presence of 1 ug/paw of opioid antagonist naloxone treated 30 mins before compound challenge"}, "Rattus norvegicus [2]": {"tested_on": "Rattus norvegicus", "experiment": "Antiinflammatory activity against carrageenan-induced edema in Wistar rat assessed as paw thickness at 105 nm/paw i.pl administered before 30 mins of carrageenan challenge"}, "Rattus norvegicus [3]": {"tested_on": "Rattus norvegicus", "experiment": "Antinociceptive activity against carrageenan-induced hyperalgesia in Wistar rat assessed as increase in pain threshold at 105 nm/paw, i.pl administered after 150 mins of carrageenan challenge by paw pressure test"}, "Rattus norvegicus [4]": {"tested_on": "Rattus norvegicus", "experiment": "Antinociceptive activity in i.pl dosed Wistar rat assessed as increase in pain threshold by paw pressure test"}, "Rattus norvegicus [5]": {"tested_on": "Rattus norvegicus", "experiment": "Antinociceptive activity against carrageenan-induced hyperalgesia in Wistar rat assessed as increase in pain threshold at 105 nm/paw, i.pl in presence of 5 mg/kg of nonselective serotonin antagonist methysergide treated 30 mins before compound challenge", "design": "dose 5 mg/kg"}}, "note": "Active and inactive are the calls of the source.", "data": [{"smiles": "O=C(Cc1c[nH]c2cc(Br)ccc12)N[C@@H](Cc1c[nH]cn1)C(=O)O", "values": [{"measurement": "Activity", "setting": "Rattus norvegicus [1]", "result": "Active"}, {"measurement": "inhibition", "setting": "Rattus norvegicus [2]", "result": "inactive"}, {"measurement": "inhibition", "setting": "Rattus norvegicus [3]", "result": "Active"}, {"measurement": "Activity", "setting": "Rattus norvegicus [4]", "result": "Dose-dependent effect"}, {"measurement": "Activity", "setting": "Rattus norvegicus [5]", "result": "inactive"}]}]}
